Test system: live anesthetized rats
Settings: rat, in vivo

CNCC(O)c1ccc(O)c(O)c1 (stereo not shown) [Adrenalin]
rhythm disturbances: induced rhythm disturbances
